Where “and” joins values, the source holds several entries; their conditions need not be identical. Equal values may be shown once.
Experiment: Propofol phase-solubility tests with cyclodextrins according to the method of Higuchi and Connors
Conditions: 25 °C, water, thermodynamic from solid
Protocol: A large excess of propofol is added to 1.4 ml of the appropriate cyclodextrin solution. The resulting mixtures are vortexed for about 5 min and stirred at a temperature 25±0.5° C. for 24 hours. About 1 ml of the solution is transferred using a Pasteur pipette into an Eppendorf tube. Afterwards, these tubes are centrifuged for 30 min at 13,200 rpm. Afterwards, 40 μl of the aqueous phase are sampled and then diluted to 1/10 in ethanol and to 40/1,000 in a solution of acetonitrile and an ammonia buffer pH 9.2. Afterwards, these samples are filtered through a 0.2 μm filter and then put in vial before analysis by high-performance liquid chromatography with UV detection. The injection volume was 10 microliters (cf. injection loop). […] The stability constants Kc are estimated from the slope of the line of the phase-solubility diagram according to the following equation: Kc=slope/S0 (1−slope).
The stability constant Kc is calculated from the slope of the line of the phase-solubility diagram according to the following equation: Kc=slope/S0(1−slope).
The used 2-hydropropyl-β-cyclodextrin is still that one selected before (HPB-LB). […]
The results of the solubility tests have been analysed again more particularly with the complexation efficiency (CE), calculated using the equation: […]

SMILES: CC(C)c1cccc(C(C)C)c1O [propofol, 2,6-bis(propan-2-yl)phenol]
- solubility at 24 h: 1070 µM and 190 µg/mL

Reference: patent publication US20240050588A1, “PHARMACEUTICAL COMPOSITION CONTAINING PROPOFOL, A CYCLODEXTRIN OR A CYCLODEXTRIN DERIVATIVE AND A PHARMACEUTICALLY ACCEPTABLE SALT” (CENTRE HOSPITALIER UNIVERSITAIRE DE LILLE, priority 2020, published 2024)
